Measured values as given in ChEMBL document CHEMBL5375989, “Pioneering 4,11-Dioxo-4,11-dihydro-1H-anthra[2,3-d]imidazol-3-ium Compounds as Promising Survivin Inhibitors by Targeting ILF3/NF110 for Cancer Therapy” (J Med Chem, 2023).

Key:
[1] = Toxicity in BALB/c nude mouse assessed as death at 4 mg/kg, sc administered every 2 days for 14 days; type: organism-based; details: in vivo, 336 h, time 14 day
[2] = Toxicity in BALB/c mouse assessed as morphological changes in heart at 2 to 4 mg/kg by H and E staining based analysis; type: organism-based; details: in vivo, dose 2-4 mg/kg
[3] = Toxicity in BALB/c nude mouse assessed as body weight loss at 4 mg/kg, sc administered every 2 days for 14 days; type: organism-based; details: in vivo, 336 h, time 14 day
[4] = test system: TE-1; assay: cells; details: Homo sapiens, TE-1, 48 h
Description: Antiproliferative activity against human TE-1 cells assessed as inhibition of cell growth measured after 48 hrs by MTT assay

[5] = Toxicity in BALB/c mouse assessed as morphological changes in liver at 2 to 4 mg/kg by H and E staining based analysis; type: organism-based; details: in vivo, dose 2-4 mg/kg
[6] = test system: A549; assay: Induction of apoptosis in human A549 cells assessed as necrotic cells at 0.1 uM measured after 48 hrs by annexin V and PI staining based flow cytometry analysis (reference value: 1.47%); type: functional
[7] = test system: A549; assay: Induction of apoptosis in human A549 cells assessed as necrotic cells at 0.04 uM measured after 48 hrs by annexin V and PI staining based flow cytometry analysis (reference value: 1.47%); type: functional
[8] = molecular target: T1, Interleukin enhancer-binding factor 3 (Homo sapiens, UniProt Q12906); assay: Binding affinity to ILF3 (unknown origin) assessed as dissociation constant at upto 1 uM by SPR method
T1 sequence (Q12906 whole entry): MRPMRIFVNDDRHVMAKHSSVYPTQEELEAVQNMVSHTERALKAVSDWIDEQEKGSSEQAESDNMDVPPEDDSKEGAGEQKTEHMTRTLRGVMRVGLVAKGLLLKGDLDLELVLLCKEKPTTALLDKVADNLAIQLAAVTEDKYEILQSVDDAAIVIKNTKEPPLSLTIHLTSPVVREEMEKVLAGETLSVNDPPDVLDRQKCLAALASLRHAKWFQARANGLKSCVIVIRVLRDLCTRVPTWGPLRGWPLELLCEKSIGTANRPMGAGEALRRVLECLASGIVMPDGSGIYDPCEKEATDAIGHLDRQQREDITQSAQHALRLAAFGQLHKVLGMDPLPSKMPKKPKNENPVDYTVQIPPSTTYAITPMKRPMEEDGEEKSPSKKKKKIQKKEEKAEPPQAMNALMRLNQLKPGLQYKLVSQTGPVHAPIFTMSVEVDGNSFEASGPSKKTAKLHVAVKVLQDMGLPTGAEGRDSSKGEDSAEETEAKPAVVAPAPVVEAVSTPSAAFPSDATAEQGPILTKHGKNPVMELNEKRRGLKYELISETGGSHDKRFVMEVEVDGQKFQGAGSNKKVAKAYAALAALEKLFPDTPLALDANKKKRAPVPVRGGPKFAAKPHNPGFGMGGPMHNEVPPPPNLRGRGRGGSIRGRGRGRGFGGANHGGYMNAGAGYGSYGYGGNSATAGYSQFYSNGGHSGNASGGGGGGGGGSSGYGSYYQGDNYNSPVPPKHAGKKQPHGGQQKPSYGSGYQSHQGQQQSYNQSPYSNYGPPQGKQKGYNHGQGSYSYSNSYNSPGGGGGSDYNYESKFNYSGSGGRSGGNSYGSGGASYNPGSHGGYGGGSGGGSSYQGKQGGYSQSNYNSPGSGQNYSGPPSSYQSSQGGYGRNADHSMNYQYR

[9] = test system: HeLa; assay: Antiproliferative activity against human HeLa cells assessed as inhibition of cell growth measured after 48 hrs by MTT assay; type: functional, cell-based; details: hela
[10] = test system: ASPC1; assay: Antiproliferative activity against human ASPC1 cells assessed as inhibition of cell growth measured after 48 hrs by MTT assay; type: functional, cell-based; details: aspc1
[11] = test system: A549; assay: Induction of apoptosis in human A549 cells assessed as late apoptotic cells at 0.1 uM measured after 48 hrs by annexin V and PI staining based flow cytometry analysis (reference value: 4.70%); type: functional
[12] = Drug uptake in Sprague-Dawley rat blood at 2 mg/kg measured after 24 hrs by UPLC-3Q analysis; type: ADME, organism-based; details: in vivo
[13] = Toxicity in BALB/c nude mouse assessed as dermatitis at 2 mg/kg, sc administered every 2 days for 14 days; type: organism-based; details: in vivo, 336 h, time 14 day
[14] = test system: A549; assay: Induction of apoptosis in human A549 cells assessed as late apoptotic cells at 0.25 uM measured after 48 hrs by annexin V and PI staining based flow cytometry analysis (reference value: 4.70%); type: functional
[15] = test system: 143B; assay: Antiproliferative activity against human 143B cells assessed as inhibition of cell growth measured after 48 hrs by MTT assay; type: functional, cell-based; details: 143b
[16] = test system: HepG2; assay: Antiproliferative activity against human HepG2 cells assessed as inhibition of cell growth measured after 48 hrs by MTT assay; type: functional, cell-based; details: hepg2
[17] = test system: A549; assay: Induction of apoptosis in human A549 cells assessed as early apoptotic cells at 0.1 uM measured after 48 hrs by annexin V and PI staining based flow cytometry analysis (reference value: 0.71%); type: functional
[18] = Drug distribution in BALB/C nude mouse tumor xenografted with human A549 cells at 2 mg/kg measured after 2 to 6 hrs by UPLC-3Q analysis; type: ADME, organism-based, Neoplasm; details: in vivo, time 2-6 hrs
[19] = test system: A549; assay: Antitumor activity against human A549 cells xenografted in BALB/c nude mouse assessed as inhibition of tumor growth at 4 mg/kg, sc administered every 2 days for 14 days relative to control; type: functional; parameters: scale not given: the % may be the effect or the level left; details: time 14 day
[20] = test system: A549; assay: Induction of cell cycle arrest in human A549 cells assessed as accumulation of cells at G0/G1 phase at 0.1 uM incubated for 48 hrs by PI staining based flow cytometry analysis (reference value: 63.26%); type: functional
[21] = test system: NIH3T3; assay: Antiproliferative activity against mouse NIH3T3 cells assessed as inhibition of cell growth measured after 48 hrs by MTT assay; type: toxicity, cell-based; details: nih3t3
[22] = test system: A549; assay: Induction of apoptosis in human A549 cells assessed as late apoptotic cells at 0.04 uM measured after 48 hrs by annexin V and PI staining based flow cytometry analysis (reference value: 4.70%); type: functional
[23] = test system: PANC-1; assay: Antiproliferative activity against human PANC-1 cells assessed as inhibition of cell growth measured after 48 hrs by MTT assay; type: functional, cell-based; details: panc-1
[24] = Toxicity in BALB/c nude mouse assessed as effect on body weight at 2 mg/kg, sc administered every 2 days for 14 days; type: organism-based; details: in vivo, 336 h, time 14 day
[25] = Drug metabolism in BALB/C nude mouse kidney xenografted with human A549 cells at 2 mg/kg measured after 2 to 6 hrs by UPLC-3Q analysis; type: ADME, organism-based; details: in vivo, time 2-6 hrs
[26] = test system: A549; assay: Antiproliferative activity against human A549 cells assessed as inhibition of cell growth measured after 48 hrs in presence of scramble siRNA by MTT assay; type: functional, cell-based; details: A549, 48 h
[27] = Drug distribution in BALB/C nude mouse heart xenografted with human A549 cells at 2 mg/kg measured after 2 to 6 hrs by UPLC-3Q analysis; type: ADME, organism-based; details: in vivo, time 2-6 hrs
[28] = Toxicity in BALB/c mouse assessed as morphological changes in kidney at 2 to 4 mg/kg by H and E staining based analysis; type: organism-based; details: in vivo, dose 2-4 mg/kg
[29] = test system: NCI-H1299; assay: Antiproliferative activity against human NCI-H1299 cells assessed as inhibition of cell growth measured after 48 hrs by MTT assay; type: functional, cell-based; details: nci-h1299

With `Cn1c[n+](C)c2c1C(=O)c1cc3ccccc3cc1C2=O.[I-]` the Activity [1] was “Non-Toxic”, the Activity [2] was “Non-Toxic” and the Activity [3] was “Non-Toxic”. For the same compound, the IC50 [4] was 0.05 µM, the Activity [5] was “Non-Toxic” and the Activity [6] was 6.62%. It also gave an Activity [7] of 4.74%, a Kd [8] of 0.163 µM and an IC50 [9] of 1.16 µM. For the same compound, the IC50 [10] was 0.25 µM, the Activity [11] was 81.9% and the Drug uptake [12] was “Active”. The Activity [13] was “Non-Toxic”, the Activity [14] was 90% and the IC50 [15] was 0.59 µM. For the same compound, the IC50 [16] was 0.25 µM, the Activity [17] was 2.55% and the Drug uptake [18] was “Active”. The Activity [19] was 83.6%, the Activity [20] was 85.37% and the IC50 [21] was 14 µM. The Activity [22] was 61.4%, the IC50 [23] was 0.08 µM and the Activity [24] was “Non-Toxic”. The Drug metabolism [25] was “Metabolite_Detected”, the IC50 [26] was 0.009 µM and the Drug uptake [27] was “Not Active”. For the same compound, the Activity [28] was “Non-Toxic” and the IC50 [29] was 0.51 µM.
